Data published in patent US8354414B2, “Substituted bicyclic pyrimidines” (Cephalon, Inc, priority 2006, dated 2013).

Tests used:
CDK5/GST-p25 = target: T1, CDK5/GST-p25 (Homo sapiens, UniProt Q00535); assay: Inhibition of CDK5/GST-p25 kinase activity (ELISA with time-resolved fluorescence readout); type: biochemical
T1 construct: The final construct, encoding for full-length human CDK5; made in house; host or cells: Sf21 insect cells (baculovirus co-infection)
Outline: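 The substrate, GST-Rb(773-928), was immobilised on plates and phosphorylated for 20 min at 37 °C by 2 ng/ml CDK5/GST-p25 in HEPES pH 7.2 with 10 µM ATP and 10 mM MgCl2. Both proteins were human and co-expressed in insect cells. Ser-780 phosphorylation was read by europium time-resolved fluorescence and converted to IC50.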

His6-GSK-3β = target: T2, His6-GSK-3β (Homo sapiens, UniProt P49841); assay: Inhibition of His6-GSK-3β kinase activity (ELISA-based format, time-resolved fluorescence readout); type: biochemical; settings: for IC50: class symbols, read-out: GSK3β IC50
T2 construct: made in house; host or cells: Sf21 insect cells (baculovirus)
Outline: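 Plate-bound recombinant GST-Rb substrate was phosphorylated for 30 min at 37° C by baculovirus-expressed His6-GSK-3β (200 ng/ml) at 20 μM ATP, 10 mM MgCl2, 2.5% DMSO. Europium time-resolved fluorescence of anti-phospho-Ser780 Rb signal gave inhibition, fitted to IC50.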

T2 sequence (P49841 2-419): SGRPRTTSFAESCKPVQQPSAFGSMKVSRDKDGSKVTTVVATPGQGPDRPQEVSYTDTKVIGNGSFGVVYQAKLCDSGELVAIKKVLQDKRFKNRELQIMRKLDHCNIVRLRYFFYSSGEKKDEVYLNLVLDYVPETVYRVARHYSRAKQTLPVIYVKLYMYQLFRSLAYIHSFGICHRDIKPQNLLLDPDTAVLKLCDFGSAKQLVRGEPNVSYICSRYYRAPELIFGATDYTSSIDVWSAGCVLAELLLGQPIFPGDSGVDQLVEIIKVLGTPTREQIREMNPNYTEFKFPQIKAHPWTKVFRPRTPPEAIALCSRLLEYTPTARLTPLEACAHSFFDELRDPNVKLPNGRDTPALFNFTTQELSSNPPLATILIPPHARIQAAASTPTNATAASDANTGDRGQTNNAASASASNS
T1 sequence (Q00535 whole entry): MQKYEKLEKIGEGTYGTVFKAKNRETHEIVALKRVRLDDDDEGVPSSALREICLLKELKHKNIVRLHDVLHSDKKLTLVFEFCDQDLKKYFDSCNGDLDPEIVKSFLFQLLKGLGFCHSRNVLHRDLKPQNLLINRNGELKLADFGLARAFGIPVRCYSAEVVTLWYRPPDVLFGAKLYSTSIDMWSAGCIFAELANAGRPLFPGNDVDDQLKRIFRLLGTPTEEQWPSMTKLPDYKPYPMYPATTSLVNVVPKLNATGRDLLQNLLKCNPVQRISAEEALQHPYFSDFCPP
T1 sequence (Q15078 108-307 partner limits assumed): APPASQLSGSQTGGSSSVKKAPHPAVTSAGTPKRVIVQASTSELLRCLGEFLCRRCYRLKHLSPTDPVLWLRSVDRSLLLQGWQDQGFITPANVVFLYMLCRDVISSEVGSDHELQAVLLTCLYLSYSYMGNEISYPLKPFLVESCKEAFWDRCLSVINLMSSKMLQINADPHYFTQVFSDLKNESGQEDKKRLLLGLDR

| SMILES | IC50 (CDK5/GST-p25; class symbols) [µM] | IC50 (His6-GSK-3β) [µM] | melting point | inhibition at 10 µM (CDK5/GST-p25) [%] | IC50 (CDK5/GST-p25; numeric bounds) [µM] | GSK3β % @10 μM (His6-GSK-3β; @10 μM) [% @10 μM] |
| --- | --- | --- | --- | --- | --- | --- |
| CNCCCNc1nc(C2C(=O)Nc3ccc(Br)cc32)c2cn(CC(C)C)nc2n1 (stereo not drawn) [Example 267, 5-Bromo-3-[2-isobutyl-6-(3-methylamino-propylamino)-2H-pyrazolo[3,4-d]pyrimidin-4-yl]-1,3-dihydro-indol-2-one] | < 0.3 | < 0.3 | 240 to 259 °C |  |  |  |
| CC(C)Cn1cc2c(C3C(=O)Nc4ccc(Br)cc43)nc(NCCN(C)C)nc2n1 (stereo not drawn) [Example 268, 5-Bromo-3-[6-(2-dimethylamino-ethylamino)-2-isobutyl-2H-pyrazolo[3,4-d]pyrimidin-4-yl]-1,3-dihydro-indol-2-one] | < 0.3 | < 0.3 | 261 to 264.5 °C |  |  |  |
| CC(C)Cn1cc2c(C3C(=O)Nc4ccc(Br)cc43)nc(NCCCN(C)C)nc2n1 (stereo not drawn) [Example 269, 5-Bromo-3-[6-(3-dimethylamino-propylamino)-2-isobutyl-2H-pyrazolo [3,4-d]pyrimidin-4-yl]-1,3-dihydro-indol-2-one] | < 0.3 | < 0.3 | 250.5 to 254 °C |  |  |  |
| CC(C)Cn1cc2c(C3C(=O)Nc4ccc(Cl)cc43)nc(NCCN(C)C)nc2n1 (stereo not drawn) [Example 270, 5-Chloro-3-[6-(2-dimethylamino-ethylamino)-2-isobutyl-2H-pyrazolo[3,4-d]pyrimidin-4-yl]-1,3-dihydro-indol-2-one] | 0.3 to 3 | < 0.3 | 264 to 265.5 °C |  |  |  |
| CC(C)Cn1cc2c(C3C(=O)Nc4ccc(Cl)cc43)nc(NCCCN3CCOCC3)nc2n1 (stereo not drawn) [Example 271, 5-Chloro-3-[2-isobutyl-6-(3-morpholin-4-yl-propylamino)-2H-pyrazolo[3,4-d]pyrimidin-4-yl]-1,3-dihydro-indol-2-one] | < 0.3 | < 0.3 | 263 to 265.5 °C |  |  |  |
| COCCNc1nc(C2C(=O)Nc3ccc(Cl)cc32)c2cn(CC(C)C)nc2n1 (stereo not drawn) [Example 272, 5-Chloro-3-[2-isobutyl-6-(2-methoxy-ethylamino)-2H-pyrazolo[3,4-d]pyrimidin-4-yl]-1,3-dihydro-indol-2-one] | < 0.3 | < 0.3 | 286 to 289 °C |  |  |  |
| CC(=O)NCCNc1nc(C2C(=O)Nc3ccc(Cl)cc32)c2cn(C3CCCC3)nc2n1 (stereo not drawn) [Example 276, N-{2-[4(5-Chloro-2-oxo-2,3-dihydro-1H-indol-3-yl)-2-cyclopentyl-2H-pyrazolo[3,4-d]pyrimidin-6-ylamino]-ethyl}-acetamide] | 0.3 to 3 | < 0.3 | 209 to 226 °C |  |  |  |
| COCCNc1nc(C2C(=O)Nc3ccc(Cl)cc32)c2cn(C3CCCC3)nc2n1 (stereo not drawn) [Example 277, 5-Chloro-3-[2-cyclopentyl-6-(2-methyoxy-ethylamino)-2H-pyrazolo[3,4-d]pyrimidin-4-yl]-1,3-dihydro-indol-2-one] | < 0.3 | < 0.3 | 249 to 259 °C |  |  |  |
| O=C1Nc2ccc(Cl)cc2C1c1nc(NCCCN2CCOCC2)nc2nn(C3CCCC3)cc12 (stereo not drawn) [Example 278, 5-Chloro-3-[2-cyclopentyl-6-(3-morpholin-4-yl-propylamino)-2H-pyrazolo[3,4-d]pyrimidin-4-yl]-1,3-dihydro-indole-2-one] | 0.3 to 3 | < 0.3 | 250 to 254.5 °C |  |  |  |
| O=C1Nc2ccc(Cl)cc2C1c1nc(NCCc2cccnc2)nc2nn(C3CCCC3)cc12 (stereo not drawn) [Example 279, 5-Chloro-3-[2-cyclopentyl-6-(2-pyridin-3-yl-ethylamino)-2H-pyrazolo[3,4-d]pyrimidin-4-yl]-1,3-dihydro-indol-2-one] | 0.3 to 3 | < 0.3 | 277 to 281 °C |  |  |  |
| CC(C)CNc1nc(C2C(=O)Nc3ccc(Cl)cc32)c2cn(C3CCCC3)nc2n1 (stereo not drawn) [Example 280, 5-Chloro-3-(2-cyclopentyl-6-isobutylamino-2H-pyrazolo[3,4-d]pyrimidin-4-yl)-1,3-dihydro-indol-2-one] | > 10 | < 0.3 | 282 to 286 °C |  |  |  |
| CCCCCn1cc2c(C3C(=O)Nc4ccc(C(F)(F)F)cc43)nc(NCCN)nc2n1 (stereo not drawn) [Example 288, 3-[6-(2-Amino-ethylamino)-2-pentyl-2H-pyrazolo [3,4-d]pyrimidin-4-yl]-5-trifluoromethyl-1,3-dihydro-indol-2-one] | 0.3 to 3 | < 0.3 | 192 °C (dec.) |  |  |  |
| CCCCCn1cc2c(C3C(=O)Nc4ccc(C(F)(F)F)cc43)nc(NCCCN)nc2n1 (stereo not drawn) [Example 289, 3-[6-(3-Amino-propylamino)-2-pentyl-2H-pyrazolo[3,4-d]pyrimidin-4-yl]-5-trifluoromethyl-1,3-dihydro-indol-2-one] | < 0.3 | < 0.3 | 235 °C (dec.) |  |  |  |
| CCCCCn1cc2c(C3C(=O)Nc4ccc(C(F)(F)F)cc43)nc(NCCCN3CCOCC3)nc2n1 (stereo not drawn) [Example 290, 3-[6-(3-Morpholin-4-yl-propylamino)-2-pentyl-2H-pyrazolo[3,4-d]pyrimidin-4-yl]-5-trifluoromethyl-1,3-dihydro-indol-2-one] |  | < 0.3 | 230 °C (dec.) | 73 |  |  |
| CCCCCn1cc2c(C3C(=O)Nc4ccc(C#N)cc43)nc(Cl)nc2n1 (stereo not drawn) [Example 291, 3-(6-Chloro-2-pentyl-2H-pyrazolo [3,4-d]pyrimidin-4-yl)-2-oxo-2,3-dihydro-1H-indole-5-carbonitrile] |  | 0.3 to 3 | 254 °C (dec.) |  | > 3 |  |
| CCCCCn1cc2c(C3C(=O)Nc4ccc(C#N)cc43)nc(NCc3ccncc3)nc2n1 (stereo not drawn) [Example 292, 2-Oxo-3-{2-pentyl-6-[(pyridin-4-ylmethyl)-amino]-2H-pyrazolo [3,4-d]pyrimidin-4-yl}-2,3-dihydro-1H-indole-5-carbonitrile] | < 0.3 | < 0.3 | 288 to 290 °C (dec.) |  |  |  |
| C=CCNc1nc(C2C(=O)Nc3ccc(C#N)cc32)c2cn(CCCCC)nc2n1 (stereo not drawn) [Example 293, 3-(6-Allylamino-2-pentyl-2H-pyrazolo[3,4-d]pyrimidin-4-yl)-2-oxo-2,3-dihydro-1H-indole-5-carbonitrile] | < 0.3 | < 0.3 | 265 °C (dec.) |  |  |  |
| CCCCCn1cc2c(C3C(=O)Nc4ccc(C#N)cc43)nc(NC)nc2n1 (stereo not drawn) [Example 294, 3-(6-Methylamino-2-pentyl-2H-pyrazolo [3,4-d]pyrimidin-4-yl)-2-oxo-2,3-dihydro-1H-indole-5-carbonitrile] |  |  | > 310 °C | 73 |  | 70 |
| CCCCCn1cc2c(C3C(=O)Nc4ccc(C#N)cc43)nc(NC(C)C)nc2n1 (stereo not drawn) [Example 295, 3-(6-Isopropylamino-2-pentyl-2H-pyrazolo[3,4-d]pyrimidin-4-yl)-2-oxo-2,3-dihydro-1H-indole-5-carbonitrile] | < 0.3 | < 0.3 | 199 °C (dec.) |  |  |  |
| Cn1cc2c(C3C(=O)Nc4ccc(Br)cc43)nc(NCCN)nc2n1 (stereo not drawn) [Example 303, 3-[6-(2-Amino-ethylamino)-2-methyl-2H-pyrazolo [3,4-d]pyrimidin-4-yl]-5-bromo-1,3-dihydro-indol-2-one] | < 0.3 | 0.3 to 3 | 260 to 262 °C |  |  |  |
| C[C@H](O)CNc1nc(C2C(=O)Nc3ccc(Br)cc32)c2cn(C)nc2n1 (stereo partly drawn) [Example 304, 5-Bromo-3-[6-(2-(S)-hydroxypropylamino)-2-methyl-2H-pyrazolo [3,4-d]pyrimidin-4-yl]-1,3-dihydro-indol-2-one] | < 0.3 | < 0.3 | 338 to 340 °C |  |  |  |
| CN(C)CCCNc1nc(C2C(=O)Nc3ccc(Br)cc32)c2cn(C)nc2n1 (stereo not drawn) [Example 307, 5-Bromo-3-[6-(3-dimethylamino-propylamino)-2-methyl-2H-pyrazolo[3,4-d]pyrimidin-4-yl]-1,3-dihydro-indol-2-one] | 0.3 to 3 | 0.3 to 3 | 310 to 312 °C (dec.) |  |  |  |
| CCCn1cc2c(C3C(=O)Nc4ccc(Br)cc43)nc(NC[C@@H](C)N)nc2n1 (stereo partly drawn) [Example 369, 3-[6-(2-(R)-Amino-propylamino)-2-propyl-2H-pyrazolo[3,4-d]pyrimidin-4-yl]-5-bromo-1,3-dihydro-indol-2-one] | 0.3 to 3 | < 0.3 | 247 to 250 °C |  |  |  |
| CN(C)CCCNc1nc(C2C(=O)Nc3ccc(Br)cc32)c2cn(C3CCCC3)nc2n1 (stereo not drawn) [Example 371, 5-Bromo-3-[2-cyclopentyl-6-(3-dimethylamino-propylamino)-2H-pyrazolo [3,4-d]pyrimidin-4-yl]-1,3-dihydro-indol-2-one] |  | < 0.3 | 198 to 200 °C |  | > 3 |  |
| C[C@H](O)CNc1nc(C2C(=O)Nc3ccc(Br)cc32)c2cn(C3CCCC3)nc2n1 (stereo partly drawn) [Example 372] |  | < 0.3 | > 300 °C | 77 |  |  |
| C[C@@H](O)CNc1nc(C2C(=O)Nc3ccc(Br)cc32)c2cn(C3CCCC3)nc2n1 (stereo partly drawn) [Example 373] |  | < 0.3 | > 300 °C | 67 |  |  |
| C[C@H](O)CNc1nc(C2C(=O)Nc3ccc(Cl)cc32)c2cn(C3CCCC3)nc2n1 (stereo partly drawn) [Example 374] |  | < 0.3 | > 300 °C | 56 |  |  |
| C[C@@H](O)CNc1nc(C2C(=O)Nc3ccc(Cl)cc32)c2cn(C3CCCC3)nc2n1 (stereo partly drawn) [Example 375] |  | < 0.3 | > 300 °C | 62 |  |  |
